According to US20240246964A1 (Arbutus Biopharma Corporation, priority 2021, published 2024):
Read-outs that look alike come from different tables or passages of the source.

Key:
[1] = target: PD-L1 His protein / PD-1 Fc protein (Homo sapiens (Human), UniProt Q9NZQ7); assay: HTRF Assay (PD-1/PD-L1 interaction); assay type: binding
[2] = target: human PD-L1 (Homo sapiens (Human), UniProt Q9NZQ7); assay: T cell activation luciferase reporter cell culture system (T Cell Activation Assay); assay type: cell-based
Sequence of human PD-L1 (Q9NZQ7 19-290): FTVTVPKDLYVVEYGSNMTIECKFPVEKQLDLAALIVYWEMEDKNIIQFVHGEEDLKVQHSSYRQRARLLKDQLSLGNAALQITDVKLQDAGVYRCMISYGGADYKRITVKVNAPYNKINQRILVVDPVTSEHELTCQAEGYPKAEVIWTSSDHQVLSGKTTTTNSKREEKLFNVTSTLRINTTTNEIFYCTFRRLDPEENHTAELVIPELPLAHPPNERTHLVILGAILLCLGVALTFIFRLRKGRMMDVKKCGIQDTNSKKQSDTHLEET

[3] = luciferase reporter assay, PD-L1 aAPC/CHO-K1 cells with PD-1 effector Jurkat T cells

Sequence of PD-L1 His protein / PD-1 Fc protein (Q9NZQ7 19-238): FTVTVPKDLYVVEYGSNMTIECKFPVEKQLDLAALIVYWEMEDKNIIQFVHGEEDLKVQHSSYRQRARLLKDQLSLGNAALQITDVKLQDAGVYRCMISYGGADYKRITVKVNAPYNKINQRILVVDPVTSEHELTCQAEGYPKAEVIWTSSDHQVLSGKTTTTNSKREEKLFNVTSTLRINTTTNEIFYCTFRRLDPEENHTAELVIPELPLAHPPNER

COc1cc(-c2nccc(-c3cccc4c3CC[C@@H]4Oc3nc(OC)c(CN4CC5(CNC(=O)C5)C4)cc3C(F)(F)F)c2Cl)ccc1CN1CC2(CNC(=O)C2)C1 [Example 292, (S)-2-(4-(3-chloro-4-(1-((6-methoxy-5-((7-oxo-2,6-diazaspiro[3.4]octan-2-yl)methyl)-3-(trifluoromethyl)pyridin-2-yl)oxy)-2,3-dihydro-1H-inden-4-yl)pyridin-2-yl)-2-methoxybenzyl)-2,6-diazaspiro[3.4]octan-7-one]
IC50 ([1]; PD-L1 His 6 nM, PD-1 Fc 6 nM): 4.4 nM | EC50 [2, 3]: 388 nM

COc1nc(-c2cccc(-c3ccnc(-c4ccc5c(c4)OCCNC5)c3Cl)c2Cl)ccc1CNC[C@@H]1CCC(=O)N1 [Compound 26, (S)-5-((((6-(2-chloro-3-(3-chloro-2-(2,3,4,5-tetrahydrobenzo[f][1,4]oxazepin-8-yl)pyridin-4-yl)phenyl)-2-methoxypyridin-3-yl)methyl)amino)methyl)pyrrolidin-2-one]
IC50 ([1]; PD-L1 His 6 nM, PD-1 Fc 6 nM): 0.2 nM | EC50 [2, 3]: 77.3 nM

COc1cc(-c2ncnc(-c3cccc(NC(=O)c4cn(C)c(=O)n(C)c4=O)c3Cl)c2Cl)ccc1CNC[C@H](C)O [Compound 746, (S)—N-(2-Chloro-3-(5-chloro-6-(4-(((2-hydroxypropyl)amino)methyl)-3-methoxyphenyl)pyrimidin-4-yl)phenyl)-1,3-dimethyl-2,4-dioxo-1,2,3,4-tetrahydropyrimidine-5-carboxamide]
IC50 ([1]; PD-L1 His 6 nM, PD-1 Fc 6 nM): 1.29 nM | EC50 [2, 3]: 2080 nM

COc1nc(-c2cccc(-c3ccnc(-c4ccc5c(c4)CN(CCNC[C@@H]4CCC(=O)N4)C5=O)c3Cl)c2Cl)ccc1CNC[C@@H]1CCC(=O)N1 [Compound 66, 5-(3-chloro-4-(2-chloro-3-(6-methoxy-5-(((((S)-5-oxopyrrolidin-2-yl)methyl)amino)methyl)pyridin-2-yl)phenyl)pyridin-2-yl)-2-(2-((((S)-5-oxopyrrolidin-2-yl)methyl)amino)ethyl)isoindolin-1-one]
IC50 ([1]; PD-L1 His 6 nM, PD-1 Fc 6 nM): 0.6 nM | EC50 [2, 3]: 158 nM

COc1cc(CNCCO)cc(-c2nccc(-c3cccc(-c4ccc(CNCCO)c(OC)n4)c3Cl)c2Cl)c1 [Compound 156, 2-(((6-(2-chloro-3-(3-chloro-2-(3-(((2-hydroxyethyl)amino)methyl)-5-methoxyphenyl)pyridin-4-yl)phenyl)-2-methoxypyridin-3-yl)methyl)amino)ethan-1-ol]
IC50 ([1]; PD-L1 His 6 nM, PD-1 Fc 6 nM): 1.18 nM | EC50 [2, 3]: ≥ 10000 nM

CNCc1ccc(-c2cccc(-c3ccnc(-c4cc(CNCC56CC(C(=O)O)(C5)C6)cc(OC)c4)c3Cl)c2Cl)nc1OC [Compound 175, 3-(((3-(3-chloro-4-(2-chloro-3-(6-methoxy-5-((methylamino)methyl)pyridine-2-yl)phenyl)pyridine-2-yl)-5-methoxybenzyl)amino)methyl)bicyclo[1.1.1]pentane-1-carboxylic acid]
IC50 ([1]; PD-L1 His 6 nM, PD-1 Fc 6 nM): 8.73 nM | EC50 [2, 3]: 1160 nM

COc1cc(-c2nccc(-c3cccc(-c4ccc(CNC5CCN(C(C)=O)CC5)c(OC)n4)c3Cl)c2Cl)ccc1CN[C@H](CO)CC(=O)O [Example 342, (S)-3-((4-(4-(3-(5-(((1-Acetylpiperidin-4-yl)amino)methyl)-6-methoxypyridin-2-yl)-2-chlorophenyl)-3-chloropyridin-2-yl)-2-methoxybenzyl)amino)-4-hydroxybutanoic acid]
IC50 ([1]; PD-L1 His 6 nM, PD-1 Fc 6 nM): 0.08 nM | EC50 [2, 3]: 339 nM

COc1cc(-c2nccc(-c3cccc(-c4ccc5c(CNC6CN(C(C)=O)C6)cn(C)c5n4)c3Cl)c2Cl)ccc1CNC[C@@H]1CCC(=O)N1 [Compound 95, (S)-5-(((4-(4-(3-(3-(((1-acetylazetidin-3-yl)amino)methyl)-1-methyl-1H-pyrrolo[2,3-b]pyridin-6-yl)-2-chlorophenyl)-3-chloropyridin-2-yl)-2-methoxybenzyl)amino)methyl)pyrrolidin-2-one]
IC50 ([1]; PD-L1 His 6 nM, PD-1 Fc 6 nM): 0.6 nM | EC50 [2, 3]: 104 nM

CNCc1ccc(C(=O)Nc2cccc(-c3ccnc(-c4ccc(CNC[C@@H]5CCC(=O)N5)c(OC)c4)c3Cl)c2C)nc1 [Example 756, (S)—N-(3-(3-chloro-2-(3-methoxy-4-((((5-oxopyrrolidin-2-yl)methyl)amino)methyl)phenyl)pyridin-4-yl)-2-methylphenyl)-5-((methylamino)methyl)picolinamide]
IC50 ([1]; PD-L1 His 6 nM, PD-1 Fc 6 nM): 0.2 nM | EC50 [2, 3]: 63.8 nM

COc1nc(-c2cccc(-c3ccnc(-c4ccc5c6c(n(C)c5c4)CCNC6)c3Cl)c2Cl)ccc1CNC[C@@H]1CCC(=O)N1 [Compound 141, (S)-5-((((6-(2-chloro-3-(3-chloro-2-(5-methyl-2,3,4,5-tetrahydro-1H-pyrido[4,3-b]indol-7-yl)pyridin-4-yl)phenyl)-2-methoxypyridin-3-yl)methyl)amino)methyl)pyrrolidin-2-one]
IC50 ([1]; PD-L1 His 6 nM, PD-1 Fc 6 nM): 0.826 nM | EC50 [2, 3]: ≥ 10000 nM

COc1nc(-c2cccc(-c3nccc(-c4ccc(CN5CCC(O)CC5)c(OC)n4)c3Cl)c2Cl)ccc1CNC1CCN(C(C)=O)CC1 [Example 761, 1-(4-(((6-(2-Chloro-3-(3′-chloro-5-((4-hydroxypiperidin-1-yl)methyl)-6-methoxy-[2,4′-bipyridin]-2′-yl)phenyl)-2-methoxypyridin-3-yl)methyl)amino)piperidin-1-yl)ethan-1-one]
IC50 ([1]; PD-L1 His 6 nM, PD-1 Fc 6 nM): 0.87 nM | EC50 [2, 3]: 16.9 nM

CNCc1ccc(-c2cccc(-c3ccnc(-c4ccc(CN5CC6(CC(C(=O)OC(C)C)C6)C5)c(OC)c4)c3Cl)c2Cl)nc1OC [Example 281, Isopropyl 2-(4-(3-chloro-4-(2-chloro-3-(6-methoxy-5-((methylamino)methyl)pyridin-2-yl)phenyl)pyridin-2-yl)-2-methoxybenzyl)-2-azaspiro[3.3]heptane-6-carboxylate]
IC50 ([1]; PD-L1 His 6 nM, PD-1 Fc 6 nM): 10.9 nM | EC50 [2, 3]: 153 nM

COc1cc(-c2nccc(-c3cccc(-c4ccc(CN5CC6(CNC(=O)C6)C5)c(OC)n4)c3Cl)c2Cl)cnc1CNC1CCN(C(C)=O)CC1 [Compound 547, 2-((6-(3-(6′-(((1-acetylpiperidin-4-yl)amino)methyl)-3-chloro-5′-methoxy-[2,3′-bipyridin]-4-yl)-2-chlorophenyl)-2-methoxypyridin-3-yl)methyl)-2,6-diazaspiro[3.4]octan-7-one]
IC50 ([1]; PD-L1 His 6 nM, PD-1 Fc 6 nM): 0.35 nM | EC50 [2, 3]: 69.2 nM

COc1cc(-c2nccc(-c3cccc(-c4ccc5c(CN6CC7(CNC(=O)C7)C6)cn(C)c5n4)c3Cl)c2Cl)ccc1CNC[C@@H]1CCC(=O)N1 [Compound 219, (S)-2-((6-(2-chloro-3-(3-chloro-2-(3-methoxy-4-((((5-oxopyrrolidin-2-yl)methyl)amino)methyl)phenyl)pyridin-4-yl)phenyl)-1-methyl-1H-pyrrolo[2,3-b]pyridin-3-yl)methyl)-2,6-diazaspiro[3.4]octan-7-one]
IC50 ([1]; PD-L1 His 6 nM, PD-1 Fc 6 nM): 2.73 nM | EC50 [2, 3]: 22.2 nM

COc1nc(-c2cccc(-c3nccc(-c4ccc(CN5CC[C@@H](O)C5)c(OC)n4)c3Cl)c2Cl)ccc1CN1CC[C@@H](O)C1 [Example 772, (R)-1-((3′-Chloro-2′-(2-chloro-3-(5-(((R)-3-hydroxypyrrolidin-1-yl)methyl)-6-methoxypyridin-2-yl)phenyl)-6-methoxy-[2,4′-bipyridin]-5-yl)methyl)pyrrolidin-3-ol]
IC50 ([1]; PD-L1 His 6 nM, PD-1 Fc 6 nM): 0.85 nM | EC50 [2, 3]: 11.6 nM

COc1nc(-c2cccc(-c3ccnc(-c4ccc5c(c4)CCCC5NC[C@@H]4CCC(=O)N4)c3Cl)c2Cl)ccc1CNC[C@@H]1CCC(=O)N1 (mixture of isomers) [Compound 112, (5S)-5-((((6-(2-chloro-3-(3-chloro-2-(5-((((S)-5-oxopyrrolidin-2-yl)methyl)amino)-5,6,7,8-tetrahydronaphthalen-2-yl)pyridin-4-yl)phenyl)-2-methoxypyridin-3-yl)methyl)amino)methyl)pyrrolidin-2-one]
IC50 ([1]; PD-L1 His 6 nM, PD-1 Fc 6 nM): 1 nM | EC50 [2, 3]: 50.5 nM

COc1cc(-c2nccc(-c3cccc(-c4ccc5c(CNCC(C)(C)O)cn(C)c5n4)c3Cl)c2Cl)ccc1CNC[C@@H]1CCC(=O)N1 [Compound 99, (S)-5-(((4-(3-chloro-4-(2-chloro-3-(3-(((2-hydroxy-2-methylpropyl)amino)methyl)-1-methyl-1H-pyrrolo[2,3-b]pyridin-6-yl)phenyl)pyridin-2-yl)-2-methoxybenzyl)amino)methyl)pyrrolidin-2-one]
IC50 ([1]; PD-L1 His 6 nM, PD-1 Fc 6 nM): 0.7 nM | EC50 [2, 3]: 47.8 nM

COc1nc(-c2cccc(-c3ccnc(-c4ccc5c(c4)CNC5)c3Cl)c2Cl)ccc1CNC[C@@H]1CCC(=O)N1 [Compound 116, (S)-5-((((6-(2-chloro-3-(3-chloro-2-(isoindolin-5-yl)pyridin-4-yl)phenyl)-2-methoxypyridin-3-yl)methyl)amino)methyl)pyrrolidin-2-one]
IC50 ([1]; PD-L1 His 6 nM, PD-1 Fc 6 nM): 0.9 nM | EC50 [2, 3]: 64.9 nM

1-(6-((6-(2-Chloro-3-(3-chloro-2-(3-methoxy-4-((6-(2-methoxyacetyl)-2,6-diazaspiro[3.3]heptan-2-yl)methyl)phenyl)pyridin-4-yl)phenyl)-2-methoxypyridin-3-yl)methyl)-2,6-diazaspiro[3.3]heptan-2-yl)-2-methoxyethan-1-one [Example 594]
IC50 [1]: 0.17 nM | EC50 [2]: 33.7 nM

COc1cc(-c2nccc(-c3cccc(-c4ccc(CNC5CCN(C(C)C)CC5)c(OC)n4)c3Cl)c2Cl)ccc1CNC1CCN(C(C)C)CC1 [Example 326, N-((6-(2-Chloro-3-(3-chloro-2-(4-(((1-isopropylpiperidin-4-yl)amino)methyl)-3-methoxyphenyl)pyridin-4-yl)phenyl)-2-methoxypyridin-3-yl)methyl)-1-isopropylpiperidin-4-amine]
IC50 ([1]; PD-L1 His 6 nM, PD-1 Fc 6 nM): 4.23 nM | EC50 [2, 3]: 43 nM

COc1cc(-c2nccc(-c3cccc(-c4ccc5c(OC)c(CNC[C@H](C)O)cc(Cl)c5n4)c3Cl)c2Cl)ccc1CNC[C@@H]1CCC(=O)N1 [Compound 206, (S)-5-(((4-(3-chloro-4-(2-chloro-3-(8-chloro-6-((((S)-2-hydroxypropyl)amino)methyl)-5-methoxyquinolin-2-yl)phenyl)pyridin-2-yl)-2-methoxybenzyl)amino)methyl)pyrrolidin-2-one]
IC50 ([1]; PD-L1 His 6 nM, PD-1 Fc 6 nM): 0.856 nM | EC50 [2, 3]: 182 nM
